Where two headings read alike, the source gives them in different places. Blank lines part the entries; values can stand above or below the compound they belong to.
What was measured:
[1] = rcm bond, DCE, 50.0 °C
human plasma kallikrein = biological target: T1, human plasma kallikrein (Homo sapiens, UniProt P03952); test: Plasma kallikrein enzyme inhibition assay (chromogenic substrate S-2302), Ki; type: biochemical; conditions: purified human plasma kallikrein, substrate S-2302, pH 7.5
T1 construct: purchased Enzyme Research Laboratories
T1 sequence (P03952 391-638 limits assumed): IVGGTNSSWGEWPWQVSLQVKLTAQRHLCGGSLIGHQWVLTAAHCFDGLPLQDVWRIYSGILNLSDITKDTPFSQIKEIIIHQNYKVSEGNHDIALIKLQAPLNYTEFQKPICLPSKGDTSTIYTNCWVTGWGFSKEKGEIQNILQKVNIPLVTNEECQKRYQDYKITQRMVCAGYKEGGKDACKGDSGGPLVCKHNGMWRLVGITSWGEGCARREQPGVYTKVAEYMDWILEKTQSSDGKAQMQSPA
T1 sequence (P03952 20-390 partner limits assumed): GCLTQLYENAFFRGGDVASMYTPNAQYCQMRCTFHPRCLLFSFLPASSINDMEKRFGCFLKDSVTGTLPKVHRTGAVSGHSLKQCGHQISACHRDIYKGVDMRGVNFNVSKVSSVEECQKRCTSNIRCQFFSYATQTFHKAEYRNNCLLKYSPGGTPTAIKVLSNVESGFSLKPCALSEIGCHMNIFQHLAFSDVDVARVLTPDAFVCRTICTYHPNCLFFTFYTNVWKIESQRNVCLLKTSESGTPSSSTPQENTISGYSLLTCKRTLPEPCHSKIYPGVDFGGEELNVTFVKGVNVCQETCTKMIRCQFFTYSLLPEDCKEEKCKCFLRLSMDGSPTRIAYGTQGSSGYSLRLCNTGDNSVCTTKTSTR
Description: (§1) The effectiveness of compounds of the present invention as inhibitors of the coagulation Factors XIa, VIIa, IXa, Xa, XIIa, plasma kallikrein chymotrypsin, trypsin, or thrombin, can be determined using a relevant purified serine protease, respectively, and an appropriate synthetic substrate. The rate of hydrolysis of the chromogenic or fluorogenic substrate by the relevant serine protease was measured both in the absence and presence of compounds of the present invention. […] A decrease in the rate of absorbance or fluorescence change in the presence of inhibitor is indicative of enzyme inhibition. Such methods are known to one skilled in the art. The results of this assay are expressed as the inhibitory constant, Ki.
Plasma kallikrein determinations were made in 0.1 M sodium phosphate buffer at a pH of 7.5 containing 0.1-0.2 M sodium chloride and 0.5% PEG 8000. Determinations were made using purified human plasma kallikrein (Enzyme Research Laboratories) at a final assay concentration of 200 pM and the synthetic substrate S-2302 (H-(D)-Pro-Phe-Arg-pNA; CHROMOGENIX®) at a concentration of 0.00008-0.0004 M.
(§2) The Michaelis constant, Km, for substrate hydrolysis by each protease, was determined at 25° C. or 37° C. in the absence of inhibitor. Values of Ki were determined by allowing the protease to react with the substrate in the presence of the inhibitor. Reactions were allowed to go for periods of 20-180 minutes (depending on the protease) and the velocities (rate of absorbance or fluorescence change versus time) were measured. The following relationships were used to calculate Ki values: (Vmax*S)/(Km+S) (vo−vs)/vs=I/(Ki*(1+S/Km)) for a competitive inhibitor with one binding site; or vs/vo=A+((B−A)/(1+(IC50/(I)^n)); and Ki=IC50/(1+S/Km) for a competitive inhibitor where: […]

human Factor XIa = biological target: T2, human Factor XIa (Homo sapiens, UniProt P03951); test: Factor XIa enzyme inhibition assay (chromogenic substrate S-2366), Ki; type: biochemical; conditions: purified human Factor XIa, substrate S-2366, pH 7.4
T2 construct: purchased Haematologic Technologies
T2 sequence (P03951 388-625 limits assumed): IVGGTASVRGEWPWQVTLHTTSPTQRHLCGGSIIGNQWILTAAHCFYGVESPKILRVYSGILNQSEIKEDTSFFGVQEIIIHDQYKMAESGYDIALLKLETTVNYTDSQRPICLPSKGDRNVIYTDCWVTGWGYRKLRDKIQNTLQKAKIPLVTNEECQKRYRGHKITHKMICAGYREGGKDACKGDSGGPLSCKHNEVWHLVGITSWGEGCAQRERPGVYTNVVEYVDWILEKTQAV
T2 sequence (P03951 19-387 partner limits assumed): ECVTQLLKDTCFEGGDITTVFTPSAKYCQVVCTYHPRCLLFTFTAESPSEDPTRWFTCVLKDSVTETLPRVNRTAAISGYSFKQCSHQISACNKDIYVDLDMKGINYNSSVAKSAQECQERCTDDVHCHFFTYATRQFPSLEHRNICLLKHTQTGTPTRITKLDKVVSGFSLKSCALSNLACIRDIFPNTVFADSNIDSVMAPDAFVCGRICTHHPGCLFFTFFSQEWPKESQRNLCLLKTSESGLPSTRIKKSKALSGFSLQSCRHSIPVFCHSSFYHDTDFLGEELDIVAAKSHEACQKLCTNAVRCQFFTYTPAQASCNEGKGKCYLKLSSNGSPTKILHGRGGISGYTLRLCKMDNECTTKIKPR
Description: as §1
Factor XIa determinations were made in 50 mM HEPES buffer at pH 7.4 containing 145 mM NaCl, 5 mM KCl, and 0.1% PEG 8000 (polyethylene glycol; JT Baker or Fisher Scientific). Determinations were made using purified human Factor XIa at a final concentration of 25-200 pM (Haematologic Technologies) and the synthetic substrate S-2366 (pyroGlu-Pro-Arg-pNA; CHROMOGENIX® or AnaSpec) at a concentration of 0.0002-0.001 M.
as §2

Structure (SMILES): CC(C)(C)OC(=O)N1CCN2c3cccc(c3)[C@@H](NC(=O)OCc3ccccc3)C/C=C/CCNC(=O)[C@@H]2C1
- ring closure, isolated yield ([1]; from C=CCCNC(=O)[C@@H]1CN(C(=O)OC(C)(C)C)CCN1c1cccc([C@H](CC=C)NC(=O)OCc2ccccc2)c1, 13-membered ring, Grubbs II (40 mol%), 7.55 mM, 5.0 h): 93%

Structure (SMILES): CC(C)(C)OC(=O)N1CCN2c3cccc(c3)[C@@H](NC(=O)OCc3ccccc3)C/C=C/CCNC(=O)[C@H]2C1
- ring closure, isolated yield ([1]; from C=CCCNC(=O)[C@H]1CN(C(=O)OC(C)(C)C)CCN1c1cccc([C@H](CC=C)NC(=O)OCc2ccccc2)c1, 13-membered ring, Grubbs II (20 mol%), 9.78 mM, 5.0 h): 81%

Structure (SMILES): CC(C)(C)OC(=O)N1CCN2c3cccc(c3)[C@@H](NC(=O)OCc3ccccc3)C/C=C/CNC(=O)[C@H]2C1
- ring closure, isolated yield ([1]; from C=CCNC(=O)[C@H]1CN(C(=O)OC(C)(C)C)CCN1c1cccc([C@H](CC=C)NC(=O)OCc2ccccc2)c1, 12-membered ring, Grubbs II (20 mol%), 9.1 mM, 5.0 h): 38.6%

Structure (SMILES): CC(C)(C)OC(=O)NC[C@H]1Nc2cccc(c2)[C@@H](NC(=O)OCc2ccccc2)C/C=C/CCNC1=O
- ring closure, isolated yield ([1]; from C=CCCNC(=O)[C@@H](CNC(=O)OC(C)(C)C)Nc1cccc([C@H](CC=C)NC(=O)OCc2ccccc2)c1, 13-membered ring, Grubbs II (20 mol%)/pTsOH.H2O (1 eq), 10.2 mM, 5.0 h): 37%

Structure (SMILES): O=C1CN2c3cccc(c3)[C@@H](NC(=O)OCc3ccccc3)CC=CCCNC(=O)C2CN1 (stereo partly shown)
- ring closure, isolated yield ([1]; from C=CCCNC(=O)C1CNC(=O)CN1c1cccc([C@H](CC=C)NC(=O)OCc2ccccc2)c1, 13-membered ring, Grubbs II (20 mol%), 9.0 mM, 2.5 h): 89%

Structure (SMILES): CC(C)(C)OC(=O)N1CC(=O)N2c3cccc(c3)[C@@H](NC(=O)OCc3ccccc3)CC=CCCNC(=O)[C@H]2C1 (mixture of isomers)
- ring closure, isolated yield ([1]; from C=CCCNC(=O)[C@H]1CN(C(=O)OC(C)(C)C)CC(=O)N1c1cccc([C@H](CC=C)NC(=O)OCc2ccccc2)c1, 13-membered ring, Grubbs II (30 mol%), 9.54 mM, 2.0 h): 76%

- Ki (human plasma kallikrein): 11.1 µM
- Ki (human Factor XIa): 5170 nM
Structure (SMILES): O=C1NCCCCC[C@H](n2cnc(-c3c(-n4cc(Cl)nn4)ccc(Cl)c3F)cc2=O)c2cccc(c2)N2C(=O)CC[C@@H]12 [Example 35, (6S,14S)-14-{4-[3-chloro-6-(4-chloro-1H-1,2,3-triazol-1-yl)-2-fluorophenyl]-6-oxo-1,6-dihydropyrimidin-1-yl}-2,8-diazatricyclo[13.3.1.0^2,6]nonadeca-1(19),15,17-triene-3,7-dione]

- Ki (human plasma kallikrein): 0.133 µM
- Ki (human Factor XIa): 8 nM
Structure (SMILES): O=C1NCCCCC[C@H](n2cnc(-c3cc(Cl)ccc3-n3cc(Cl)nn3)cc2=O)c2cccc(c2)N2CCC[C@H]12 [Example 36, (6R,14S)-14-{4-[5-chloro-2-(4-chloro-1H-1,2,3-triazol-1-yl)phenyl]-6-oxo-1,6-dihydropyrimidin-1-yl}-2,8-diazatricyclo[13.3.1.0^2,6]nonadeca-1(19),15,17-trien-7-one]

From patent publication US10676477B2, “Factor XIa macrocycle inhibitors bearing a non-aromatic P2' group” (BRISTOL-MYERS SQUIBB COMPANY, priority 2015, dated 2020)
